The series can be described thus: Pharmacokinetic study in rats, pulmonary insufflation versus intravenous injection. The series is classed as in vivo, male Sprague Dawley rats. The settings on record: 0.8 mg/kg single dose; lung samples 10-240 minutes post administration; FIG. 5. The protocol: Pharmacokinetic studies in rats with Compound I crystalline composite (XC) dry powders—Insufflation studies were performed in rats to deliver doses of dry powders of Compound I, a protein kinase antagonist. The study was performed to determine the pharmacokinetics profile of Compound I dry powders made by the process as described above following pulmonary insufflation, or intravenous injection of a single dose of the composition administered in solution to male Sprague Dawley (Charles River Laboratories) adult rats, weighing between 200 g and 250 g at the time of the study. Dry powder comprising 22.1 wt % actual drug content were used and tested at 1 mg/ml in solution to deliver a dose of 0.8 mg/kg to 18 rats in each study group. Rats acclimatized and anesthetized prior to experimentation. Lung and blood samples were taken from the rats at 10, 20, 30, 120, and 240 minutes, post drug administration.

Take `Cc1cccc(-n2ncc(C)c2-c2cc3cnccc3s2)n1` [Compound I, 2-[4-methyl-1-(6-methylpyridin-2-yl)-1H-pyrazol-5-yl]thieno-[3,2-c]pyridine]: the “content of Compound I in rat lung, insufflation versus IV injection” value is recorded as “a higher content of Compound I was detected in rat lung after insufflation versus IV injection for a longer period of time”.

For the origin of these results see patent US20250352530A1, “METHOD AND COMPOSITION FOR TREATING LUNG DISEASES” (MannKind Corporation, priority 2024, published 2025).
